The values below are quoted from earlier work in patent US10918699B2, “Therapeutic treatment for neurotrophic keratopathy” (priority 2017, dated 2021).

One data set deals with corneal ulcers. Conditions: systemic administration, humans, 1945 case series.
Data set [1] relates to cultured sheets of corneal epithelial cells.
Data set [2] relates to corneal epithelium wound healing. Conditions: together with substance-P; several pre-clinical studies.

Regarding insulin, the “healing of corneal ulcers” value with corneal ulcers is given as “improved healing”. The “cell migration and closure of artificial wounds” value in data set [1] is “promoted cell migration and closure of artificial wounds”.

Regarding Insulin-like growth factor-1 [IGF-1], the “corneal epithelium wound healing” value in data set [2] is on record as “act synergistically with substance-P”.
